Laboratory results taken from PMC8776730 (Nature Communications, 2022).

What was measured:
MIA PaCa-2 cells [1] = assay: Cellular imaging (CLSM) of FITC-labelled molecules; assay type: cell-based
Protocol: To further confirm this hypothesis, the M1 and M2 were equally labeled by FITC for cell imaging (Fig. 5b). To simulate the dynamic physiological condition, the cell culture medium was replaced every 15 min. After 1 h of incubation with M1 and M2 at the same molecule molar concentration, there occurred significant differences between the two molecules (Fig. 5c). […] The huge difference can be explained by the fact that the secondary assembly rate broke the balance between the targeted ligand and receptor, and thus tended to a stable assembly interaction. The retention efficiency depended on the assembly rate constant Ka. Meanwhile, the rapid dynamic assembly of BIVA probe in situ around the cell membrane, and contributed to the efficient formation and retention of nanofibers on the cell profile. When the incubation time was delayed up to 2 h, some components could be endocytosed into the cells, but most of them were found on the membranes (Supplementary Fig. 18). […] Then, the isolated cells were collected and lysed, the extracted cell membrane fragments were stained with ThT. […] In order to verify the influence of the addition of the targeting module of the probe molecules, we explored the imaging of R-M1 and M4 on cells.
(§1) Fig. 5 The BIVA effect with enhanced targeting to pancreatic tumor cell for boundaries imaging. a Illustration of BIVA effect: active targeting and assembly/aggregate induced retention (AIR) effect. b Chemical structure of FITC labeling. c 2D and 3D confocal images of M2 with active targeting property and M1 with BIVA effect on MIA PaCa-2 cells after incubation for 1 h. d The distribution of M1 on MIA PaCa-2 cell. e ThT staining of the lysed cell membrane of MIA PaCa-2. f, Illustration of migration inhibition after treated by BIVA probe. g The image of the migrated cells after treatment of PBS (blank), M2, M4, and M1. Scale bar: 100 μm. h The pie diagram of quantitative statistical calculation of the migrated cells (blue) in different groups. The blank control was set as 100% migrated cells.
MIA PaCa-2 cells were digested with trypsin, counted with cell counting plate, diluted to 1 × 10^4 with DMEM medium, and 1 mL to 1 cm diameter confocal microscope dish was taken. The cells were incubated in […] atmosphere for 24 h. The medium containing M1 and M2 (50 μM) was replaced and incubated with the cells for 2 h. The cells were washed with PBS for 3 times. CLSM (Zeiss 710) was used to image cells under 40 × objective, excitation = 488 nm, and emission >520 nm.
Supplementary Fig. 19 ∣ CLSM images of Miapaca-2 cells treated with different molecules or M1 under different conditions. […]

[2] = Secondary structure proportions from CD spectra; assay type: physicochemical; conditions: calculated by Reed's Reference based on CD spectra; DI water
Source text: To further evaluate the assembled structures, the corresponding circular dichroism (CD), Fourier transform infrared (FTIR) spectroscopy, and wide-angle X-ray scattering (WAXS) spectroscopy were applied. […] The FITR spectra of M1 and M3 in Fig. 3b observed the intermolecular interactions. The peaks at 1629 cm^−1, 1675 cm^−1, and 1698 cm^–1 of M3 indicated anti-parallel β-sheet structure (represent by green arrow heads), peaks at 1648 cm^−1 and 1663 cm^−1 indicated parallel beta sheet structure (represent by blue arrow heads), the existence of 1654 cm^−1 indicate α-Helix structure in M1 which verified the results deduced by CD in Fig. 3a[29],[30]. […] As a homologous sequence with amyloid β-protein (Aβ), the self-assembly motif with peptide sequence of KLVFFGCG had similar aggregation kinetics to (Aβ)42 peptide, which occurred via dynamic growth from oligomers to amyloid fibrils. The aggregation started from the freshly isolated monomers of R-M1, and precipitates were separated in 1 min and 1 h, respectively. […] After analyzed the CD spectra of M1, M3, and R-M1 (Fig. 3e), it can be clearly seen that the main secondary conformation of M1 was Random, the M3 was hybrid of Helix and Beta, and the R-M1 was Beta (Supplementary Table 1). All the results confirmed the conclusion from FTIR spectra. […] The dynamic growth procedure was like the 8-anilino-1-naphthalenesulfonic acid (ANS) stained curve (Supplementary Fig. 12). As known, ANS was sensitive to hydrophobic interaction. When R-M1 were in the initial oligomer, the fluorescence intensity of ANS increased due to the enhanced hydrophobicity. When the molecules were elongated and stacked in higher ordered nanofibrils, the blue shift of ANS in the β-sheet structures reduced the fluorescence. The molecular packing mode of well-ordered fibrils of R-M1 in Fig. 3g observed a weak reflection at 4.9 Å as laminates space and a strong broad reflection at 10.3 Å as sheet space, which was illustrated in the inserted figure. The fibril morphology was characterized by transmission electron microscopy (TEM) imaging (Fig. 3f). The statistical calculation of the fiber diameter in TEM images was 5.0 ± 0.4 nm (Supplementary Fig. 13), which was corresponded to the theoretical calculated two molecules length of R-M1. We assumed that the nanofibers were assembled by twisted R-M1 molecules centered on self-assembly motif.
The secondary structures of M1, M3 and R-M1 were verified by CD spectroscopy (JASCO Corporation, JC-1500) at room temperature with a cell path length of 1 cm. M1, […] and R-M1 were diluted to 100 μM with deionized water at 25 °C and allowed to stand for 12 h for complete assembly. Detail parameter setting were CD scale:200 mdeg/1.0Dod, measure range: 260~190 nm, scanning speed: 500 nm/min, bandwidth: 1.00 nm, and data pitch: 0.5 nm. All spectra were the average of three measurements.
Supplementary Table 1∣ Secondary structure proportions ofM1, M3 and R-M1 calculated by Reed’s Reference based on […]

[3] = Nanofiber dynamic growth, ThT staining; assay type: physicochemical; conditions: aggregation curve with ThT trace
[4] = Critical assembly concentration (CAC) by pyrene fluorescence probe; assay type: physicochemical; conditions: for I1/I3: pyrene fluorescence
Source text: In order to study the molecular design and their assembly behavior, we modular designed and synthesized seven molecules (Table 1), which respectively were BIVA probe: M1 (mPEG-GPAKLVFFGC(IR783)GRGD); the non- FAP-α tailoring molecule: M2 (mPEG-AGGKLVFFGC(IR783)GRGD) scrambled response tailoring motif of Gly-Pro-Ala with Ala-Gly-Gly; the non-labeling molecule of M1: M3 (mPEG-GPAKLVFFGCGRGD) removed IR783 labeling; FAP-α tailoring residue of M1: R-M1 (AKLVFFGC(IR783)GRGD); the non-targeting molecule: M4 (mPEG-GPAKLVFFGC(IR783)GDTG) scrambled targeting tailoring motif of Arg-Gly-Asp with Asp-Thr-Gly; the non-labeling molecule of M2: M5 (mPEG-AGGKLVFFGCGRGD) removed IR783 labeling; FAP-α tailoring residue of M3: R-M3 (AKLVFFGCGRGD). All the synthesized procedure (Supplementary Fig. 1) and characterizations of these seven molecules can be found in SI (Supplementary Figs. 2–8). […] Without IR783 labeling, molecules of M3 and M5 decreased the CAC value in solution relative to M1 and M2, which could be attributed to the proximity of the steric hindrance of hydrophilic IR783 to the self-assembly motif (Supplementary Fig. 9). […] The CAC was quantitatively calculated by fluorescence probe of pyrene.

MIA PaCa-2 cells [5] = assay: Transwell migration assay; assay type: cell-based; conditions: for migrated cells (Fig S20): MIA PaCa-2 cells
Protocol: as §1
In order to further understand the contribution of the active targeting and AIR effect during locating of the cells, the cell transwell experiment was used to quantitively evaluate interference of the cell migration based on M1, M2, and M4 (Fig. 5f). As expected, untreated cells were easy to migrate to the lower chamber, while the cells treated with active targeting molecule M2 and assembled molecule M4, the migration of cell were reduced. Under the same molar concentration, the M1 treatment group had the most inference on cell migration (Fig. 5g). […] Based on those results, we speculate M1 can be more enriched in the tumor site and form fibers through assembly to inhibit tumor cell migration compared to M2 and M4 which have no ability to target and adhere on the cell membrane.
Transwell migration assay occurred in chemotaxis chambers containing 24 wells. […] Bottom chambers contained DMEM medium containing 10% FBS. After 24 h of treatment with M1, M2, and M4 (150 μM), we fixed cells using 4% paraformaldehyde and stained with 0.25% crystal violet solution. The stained cells were counted using a microscope.
Supplementary Fig. 20∣ The quantitative results of the migrated cells after treatment of PBS (blank), M2, […] and
M1 (Fig 5g). The mean of results of fiveparallel experiments is shown and data were expressed as mean ± SD (n=5).
pM1 = 5.85E-06, pM2 = 5.94E-05, pM4 = 3.16 E-04, Statisticalanalysis: one-way ANOVA followed by post hoc Tukey’s
(§2) (1 picture or pasted object on this page, not shown here)

MIA PaCa-2 cells [6] = assay: Cytotoxicity, CCK-8 assay; assay type: cell-based; conditions: CCK-8, 24 h, at high concentration of 300 μM
Protocol: The cytotoxicity of M1 and M2 was evaluated using CCK-8 assay in MIA PaCa-2 cells. Cells were seeded into 96-well plates at a density of 5 × 10^4 cells per well and placed in an incubator for 14 h. Subsequently, the sample was diluted into a series of different concentrations (0, 50, 100, 150, 200, 250, 300, and 350 μM) and incubated with cells for 24 h. After that, 10 μL of CCK-8 solution was added to each well and incubated for 2 h. The absorbance of blank wells (Ab), sample wells (As) and control wells (Ac) were measured with a microplate reader at a test wavelength of 450 nm and a reference wavelength of 690 nm. The cell viability rate (%) is equal to (As -Ab) / (Ac -Ab) ×100%. All experiments were repeated in triplicate.
Supplementary Fig. 21∣ Cellviability assay of Miapaca-2 cells treated with a series concentration of M1 and M2 for 24 h.
Tested by Cell Counting Kit-8 (Beyotime, C0039) The mean of results of six parallel experiments isshown and data were
expressed as mean ± SD (n=6).
as §2

[7] = mouse, in vivo, iv, 16 mg/kg
MIA PaCa-2 tumor = conditions: mouse, in vivo, 16 mg/kg
Protocol: In order to reduce systemic error and individual difference, we constructed the subcutaneous pancreatic cancer model in mice for quantitatively calculating of the metabolic data.
All the animal experiments were performed in accordance with the Guide for the Care and Use of Laboratory Animals approved by the Committee for Animal Research of the National Center for Nanoscience and Technology. The MIA PaCa-2 tumor-bearing mice were intravenously injected with ICG, M1 and M2 (16 mg/kg), respectively for in vivo fluorescence imaging with in vivo spectrum imaging system. Finally, mice were sacrificed to collect the major organs and tumors for ex vivo fluorescence imaging.

[8] = MIA PaCa-2 cells / Miapaca-2 cell lysis; conditions: up to 2 h
[9] = test system: Recombinant Human Fibroblast Activation Protein-α (FAP-α); assay: FAP-α in buffer: 50 mM Tris, 1 M NaCl, 1 mg/mL, BSA, pH 7.5; conditions: up to 12 h
[10] = MIA PaCa-2 cells (supplement contents: Miapaca-2 cell lysis); conditions: up to 2 h

Q: Which results are given for “AKLVFFGC(IR783)GRGD [R-M1, FAP-α tailoring residue of M1]”?
A: state in the medium (solubility) (MIA PaCa-2 cells [1]; co-incubation with MIA PaCa-2 cells): insoluble suspended mixture; Secondary structure proportion: Beta [2]: 72%; Secondary structure proportion: Helix [2]: 0.5%; Secondary structure proportion: Random [2]: 0%; Secondary structure proportion: Turn [2]: 27.5%; final plain phase [3]: > 30 min; Critical assembly concentration (CAC) ([4]; aqueous solution, analyzed based on pyrene fluorescence): 37.2 µM; I1/I3 ([4]; conc 1.56 μM): 1.233; I1/I3 ([4]; conc 12.5 μM): 1.275; I1/I3 ([4]; conc 25 μM): 1.246; I1/I3 ([4]; conc 100 μM): 1.302; I1/I3 ([4]; conc 200 μM): 1.43

Q: For mPEG-AGGKLVFFGC(IR783)GRGD [M2], which “emigrate (migrated cells relative to blank)” value (MIA PaCa-2 cells [5]; MIA PaCa-2, 150 μM, 24 h, blank control = 1) is on record?
A: 0.6397

Q: What about the “migrated cells (Fig S20)” value (MIA PaCa-2 cells [5]; averge of groups 1-3) of the same substance?
A: 587

Q: And the “migrated cells (Fig S20)” value (MIA PaCa-2 cells [5]; group 1)?
A: 547

Q: And the “migrated cells (Fig S20)” value (MIA PaCa-2 cells [5]; group 2)?
A: 625

Q: And the “migrated cells (Fig S20)” value (MIA PaCa-2 cells [5]; group 3)?
A: 589

Q: What about the cytotoxicity (MIA PaCa-2 cells [6]) of the same substance?
A: no obvious cytotoxicity

Q: And the “blood circulation half-life (t1/2)” value [7]?
A: 1.7 ± 0.067 h

Q: What about the “fluorescence signal on the cell membrane” value (MIA PaCa-2 cells [1]; FITC-labelled molecules, MIA PaCa-2 cells, 1 h incubation, CLSM) of the same substance?
A: significantly reduced the fluorescence signal

Q: And the “reduction of tumor fluorescence signal between 12 h and 120 h” value (MIA PaCa-2 tumor)?
A: disappeared completely

Q: And the “time of distribution and accumulation in the tumor area” value (MIA PaCa-2 tumor; iv)?
A: 0.1 to 24 h

Q: For mPEG-GPAKLVFFGC(IR783)GRGD, which fragment found [8] is on record?
A: PEG residues

Q: What about the cleaved bond [9] of the same substance?
A: Pro-Ala

Q: And the fragment found [10]?
A: R-M1
